Measured values taken from patent US20110251158A1, “FULLERENE THERAPIES FOR INFLAMMATION AND INHIBITION OF BUILD-UP OF ARTERIAL PLAQUE” (Luna Innovations Incorporated, priority 2008, published 2011).

How the values were obtained:
[1] = test system: Peripheral blood basophils (PBB); assay: Anti-IgE-induced IL-13 secretion from PBB (ELISA); assay type: cell-based, human; conditions: for Mean % Inhibition of IL-13 Secretion: 15 ng/ml anti-IgE
Method: PBB were obtained from two sources: donors recruited under an IRB-approved protocol after informed consent or from leukopheresis packs obtained from the Johns Hopkins Hemapheresis Center. PBB were purified to ≧99% purity as described in Vonakis, B. M., Gibbons S Jr, Sora, R., Langdon, J. M., and MacDonald, S. M. J. Allergy Clin. Immunol. 108, 822-831 (2001), and Miura, K., Saini, S. S., Gauvreau, G., and MacGlashan, D. W., Jr. J. Immunol. 167, 2282-2291 (2001). Purified PBB were incubated overnight (20 hours) with a fullerene derivative (5 μg/ml) or vehicle control and a minimal (non-stimulatory) concentration of IL-3 (2 pg/ml) to prevent apoptosis. The next day, cells were washed and aliquoted for the histamine release assay by treatment with 0.1 mg/ml of goat polyclonal anti-IgE, buffer alone (spontaneous release) or perchloric acid (total histamine determination). Histamine was quantified in cell free supernatants using automated fluorimetry in duplicate. In a second set of experiments the two fullerene derivatives (at 5 μg/ml) were incubated with PBB for 20 hours, washed cells stimulated with 15 ng/ml anti-IgE for 18 hours in duplicate and supernatants collected for quantification of IL-13 by in-house ELISA. The optimal doses of anti-IgE are chosen for activation of PBB.

[2] = test system: intracellular calcium stores release; assay: FcεRI-induced intracellular calcium (Fura-2) in MC; assay type: cell-based, human; conditions: 10 μg/mL overnight; anti-FcεRI 1 μg/mL
Method: MC were pre-treated with or without fullerene derivatives as above, washed with Tyrodes buffer supplemented with BSA, and incubated with Fura-2 AM (2 μM) for 30 minutes at 37° C. Cells were washed, stimulated with anti-FcεRI, and calcium flux measured in real time on a Perkin Elmer LS55 Spectrofluorometer. For ROS production, cells were exposed to fullerene derivatives as above. After washing, cells were re-suspended in X-Vivo medium containing 5 μM dichlorodihydrofluorescein (DCF) at 37° C. for 30 minutes, washed, and activation-induced changes in mean fluorescence was measured with excitation at 502 nm and emission at 523 nm for 15 minutes (19). The data is presented as fluorescence intensity of the 523 nm emission over time. All experiments were performed in triplicate and degranulation was measured in parallel.
Cells were incubated with or without fullerene derivative (10 μg/mL) overnight. The next day cells were challenged with anti-FcεRI (3B4; 1 μg/mL) and calcium stores release was determined by the 340/380 nm ratio (FIGS. 11A and 11B) and ROS measured by DCF detection at 523 nm (FIGS. 11C and 11D). FIGS. 11A and 11C contain cells incubated with the TGA fullerene derivative, and FIGS. 11B and 11D contain cells incubated with the Inos fullerene derivative (10 μg/mL). […]

[3] = test system: AKT phosphorylation; assay: Western blotting of FcεRI-activated phospho-signaling in MC: AKT; assay type: cell-based, human; conditions: 10 μg/mL overnight
Method: (§1) Cell lysate preparation and Western blotting were performed using a protocol optimized for extracting phospho-proteins from human MC. Tkaczyk, C., Metcalfe, D. D., and Gilfillan, A. M. J. Immunol. Methods 268, 239-243 (2002). Following activation, cells were lysed directly in boiling denaturing sample buffer consisting of tris-buffered saline with triton-X-100 (0.5%) and protease and phosphatase inhibitors. The cell suspension was then passed through a 20-gauge needle, boiled, and centrifuged to remove cell debris. Proteins were separated on 8% or 10% NuPage Tris-Bis gels using Licor running buffer. Western blotting was performed using Licor blocking buffer and IR800 and IR700 anti-rabbit F(ab)2 secondary Abs (1:1000). Primary Abs were from Cell Signaling Technologies or Santa Cruz unless otherwise noted. Band intensities were captured using the Odyssey Imaging System and bands quantified by measuring the number of pixels in each band using a box drawn for the same area of measurement for each separate blot. The band intensity was then normalized for loading by dividing the number of pixels in each band with the housekeeping band intensity (β-actin) performed on the same blot.
(§2) MC were pretreated with Inos or TGA (10 μg/mL) overnight at 37° C./6% CO2. The next day washed cells were activated with or without anti-FcεRI (1 μg/mL) for the indicated times and lysed using protocols described above. Two separate 10% Tris-Glycine gels were used for sodium dodecyl sulfate polyacrylamide gel electrophoresis (SDS-PAGE) and Western blotting performed with the indicated phosphorylation-specific (i.e., phosph-Lyn) antibodies. To ensure equal loading, an antiactin antibody was used in parallel. The intensity of each band was detected and quantified using an Odyssey imaging system. Band intensities are presented as a ratio compared to antiactin band intensities probed in the same lane and presented for each time point in the colored graphs on the right side. Results are representative of three separate experiments. […]

[4] = test system: LAT phosphorylation; assay: Western blotting of FcεRI-activated phospho-signaling in MC: LAT; assay type: cell-based, human; conditions: 10 μg/mL overnight
Method: as §1, §2

[5] = test system: PI3-kinase phosphorylation; assay: Western blotting of FcεRI-activated phospho-signaling in MC: PI3-kinase; assay type: cell-based, human; conditions: 10 μg/mL overnight
Method: as §1, §2

[6] = test system: MC-induced anaphylaxis; assay: MC-dependent anaphylaxis model: core body temperature; assay type: in vivo, mice (C57BL/6J); conditions: 100 ng i.p. before DNP-BSA challenge
[7] = test system: mice; assay: In vivo administration of TGA for three weeks: behavior, gross pathology; conditions: i.v. daily; 200 ng/three weeks
Description: Taken together, the derivatives described herein are not cytotoxic to several cell lines tested and appear to have no acute in vivo cytotoxic effects.

C70-tetraglycolic acid [TGA] was tested, and the “FD + anti-IgE (mean ± SEM, ng/ml), IL-13” value ([1]; 5 μg/ml FD, 20 hours, 15 ng/ml anti-IgE 18 hours) was 79.3 ± 20.9 ng/mL, the “Mean % Inhibition of IL-13 Secretion” value ([1]; 5 μg/ml FD, listed as C70-TGA) was 52.4% and the “Mean % Inhibition of IL-13 Secretion” value ([1]; 5 μg/ml FD, listed as C70-tetraglucolate) was “significant inhibition”. The “IC50 (IL-13-cytokine production)” value ([1]; PBB, maximum inhibition set to 100%) was 10.6 µg/mL, the “maximal inhibition of anti-IgE stimulated IL-13 secretion” value ([1]; detected at 0.5 μg/ml, mean, n=2) was 37.4% and the “FcεRI-induced intracellular calcium stores release” value [2] was “inhibited”. For the same substance, the “inhibited AKT phosphorylation” value ([3]; 3 minutes anti-FcεRI) was 10%, the “inhibited AKT phosphorylation” value ([3]; 5 minutes anti-FcεRI) was 36% and the “inhibited AKT phosphorylation” value ([3]; 10 minutes anti-FcεRI) was 43%. The “reduced LAT phosphorylation” value ([4]; 3 minutes) was 36%, the “reduced LAT phosphorylation” value ([4]; 5 minutes) was 72% and the “reduced LAT phosphorylation” value ([4]; 10 minutes) was 69%. The “reduced PI3-kinase phosphorylation” value ([5]; 3 minutes) was 15%, the “reduced PI3-kinase phosphorylation” value ([5]; 5 minutes) was 35% and the “reduced PI3-kinase phosphorylation” value ([5]; 10 minutes) was 50%. The “anaphylactic-induced drop in core body temperature” value [6] was “significant reduction”, the behavior [7] was “no notable differences in behavior” and the gross pathological examination [7] was “no abnormalities”.
